# Measurements published in US10766914B2, “DNA alkylating agents” (OBI PHARMA, INC., priority 2015, dated 2020).
# How the values were obtained:
# H460 cells = test: Proliferation assay in H460 cells (2 hr exposure, AlamarBlue); type: cell-based, human; conditions: Homo sapiens, NCI-H460, 2 hrs exposure, wash, 70 hrs growth, read-out: IC 50 in proliferation assay in H460 cells
# Procedure, shortened: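 H460 cells seeded at 4×10^3/well, grown 24 h, then exposed to compound for 2 h at 37 °C. Drug was washed off and cells were regrown 70 h in fresh medium. Viable cells were read by AlamarBlue, and IC50 was taken as the concentration giving 50% growth inhibition.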
# SNU-449 = test: TH2870 sensitivity in liver cancer cells; type: cell-based, human; conditions: AKR1C3 expression ++++
# LIXC-003 = test: TH2870 sensitivity in liver cancer cells; type: cell-based, human; conditions: AKR1C3 expression ++++
# LIXC-086 = test: TH2870 sensitivity in liver cancer cells; type: cell-based, human; conditions: AKR1C3 expression ++++
# Hep 3B2.1-7 = test: TH2870 sensitivity in liver cancer cells; type: cell-based, human; conditions: AKR1C3 expression /
# SNU-398 = test: TH2870 sensitivity in liver cancer cells; type: cell-based, human; conditions: AKR1C3 expression /
# 22RV1 = test: TH2870 sensitivity in prostate cancer cell lines; type: cell-based; conditions: Homo sapiens
# NCI-H660 = test: TH2870 sensitivity in prostate cancer cell lines; type: cell-based; conditions: Homo sapiens
# [1] = Example 4-C body weight change, A375 xenograft study; type: in vivo, female nude mice (nu/nu); conditions: 20 mpk, qd × 5 × 2, ip
# Procedure, shortened: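 Cells in 50% Matrigel were implanted subcutaneously in the flank, and mice (10/group) were randomized at 100-150 mm3. Compounds in 5% DMSO/D5W were dosed IP QD×5/wk ×2 cycles, IP once, IP weekly ×3 wk, or IV weekly ×3 wk. Body weight and tumour volume were measured twice weekly; TGI = (1−ΔT/ΔC)×100.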
# A549 NSCLC xenograft = test: Example 4-D antitumor efficacy, ectopic A549 NSCLC xenograft model; type: in vivo, female nude mice (nu/nu)
# From the text: Specific pathogen-free homozygous female nude mice (nu/nu, Charles River Laboratories) were used. Mice were given food and water ad libitum and housed in microisolator cages. Four to six week old animals were identified by microchips (Locus Technology, Manchester, Md., USA) at the time of the experiments. All animal studies were approved by the Institutional Animal Care and Use Committee at Threshold Pharmaceuticals, Inc.
# All cell lines were from the American Type Culture Collection (ATCC, Rockville, Md., USA).
# Cells were mixed with Matrigel (50% with exception for 30% in the H460) and 0.2 ml per mouse were subcutaneously implanted to the flank area of the animals. When tumor size reached 100-150 250 mm3, mice were randomized into experimental or vehicle groups with 10 mice/group and treatment was started (Day 1). The tested compounds were formulated in 5% DMSO in D5W. The regimens employed in the examples include IP, QD×5/wk (5 days on, 2 days off) as one cycle, for a total of 2 cycles; IP, once; IP, weekly for total 3 weeks; and IV, weekly for 3 weeks. Tumor growth and body weight were measured twice a week. Tumor volume was calculated as (length×width2)/2. Drug efficacy was assessed as Tumor Growth Inhibition (TGI) and Tumor Growth Delay (TGD). TGI was defined as (1−ΔT/ΔC)×100, where ΔT/ΔC presented the ratio of the change in mean (or median, if variation within the group was relatively large) tumor volume of the treated group and of the control group. TGD was calculated as the extra days for the treated tumor to reach 500 mm3 or 1000 mm3 as compared to the control group. Animals were culled when individual tumor size reached over 2000 mm3 or mean tumor volume exceeded 1000 mm3 in the group. Data are expressed as the mean±SEM. One-way analysis of variance with Dunnett post comparison test (GraphPad Prism 4) or two-tailed student's t-test were used for analysis. A P level <0.05 was considered statistically significant.
# The compounds were tested in another A549 model. The compounds were dosed as follows. Daily IP dosing: 5 doses then 2 days off then 5 more doses starting at 100 mm^3 tumors on day 1 (10 animals per group average tumor volume). The antitumor effects and the safety of administration are graphically illustrated below.
# [2] = Homo sapiens, read-out: RelIC50
structure (smiles),measurement,setting,value
CC(OP(=O)(N1CC1)N1CC1)c1ccc([N+](=O)[O-])c(Oc2cccc(C(=O)N(C)C)c2)c1 (stereo not drawn) [Compound 2870],IC50,H460 cells,0.4 nM
same,Max Inhibition %,SNU-449,99.6%
same,IC50,SNU-449; [2],40 nM
same,Max Inhibition %,LIXC-003,44.6%
same,IC50,LIXC-003; [2],5.4 nM
same,Max Inhibition %,LIXC-086,92.8%
same,IC50,LIXC-086; [2],41 nM
same,Max Inhibition %,Hep 3B2.1-7,8.1%
same,IC50,Hep 3B2.1-7; [2],> 1000 nM
same,Max Inhibition %,SNU-398,15.3%
same,IC50,SNU-398; [2],> 1000 nM
same,IC50,22RV1,1.9 nM
same,IC50,NCI-H660,> 300 nM
same,Max. BW loss %,[1],0%
same,TGD 500,A549 NSCLC xenograft; 20 mg/kg IP QD × 5/wk × 2 wks,>85 days
same,TGI,A549 NSCLC xenograft; 20 mg/kg IP QD × 5/wk × 2 wks,95.0%
same,TGD 500,A549 NSCLC xenograft; 40 mg/kg IV 2/wk × 2 wks,>85 days
same,TGI,A549 NSCLC xenograft; 40 mg/kg IV 2/wk × 2 wks,98.6%
